For 32 compounds, IC50 results are on record in patent publication US20080021217A1, “HETEROCYCLIC INHIBITORS OF RHO KINASE” (priority 2006, published 2008).

Each structure is given as a SMILES string. A value given as a limit tells only on which side of the number the result lay.

For experiment [1], the target named is T1, recombinant N-terminal GST-tagged human Rho kinase 1 (ROCK1, amino acids 1-535) (Homo sapiens, UniProt Q13464).
T1 construct: ROCK1, amino acids 1-535, Invitrogen Inc., cat. #PV-3691; GST (N); purchased Invitrogen Inc. PV-3691
T1 sequence (Q13464 1-535): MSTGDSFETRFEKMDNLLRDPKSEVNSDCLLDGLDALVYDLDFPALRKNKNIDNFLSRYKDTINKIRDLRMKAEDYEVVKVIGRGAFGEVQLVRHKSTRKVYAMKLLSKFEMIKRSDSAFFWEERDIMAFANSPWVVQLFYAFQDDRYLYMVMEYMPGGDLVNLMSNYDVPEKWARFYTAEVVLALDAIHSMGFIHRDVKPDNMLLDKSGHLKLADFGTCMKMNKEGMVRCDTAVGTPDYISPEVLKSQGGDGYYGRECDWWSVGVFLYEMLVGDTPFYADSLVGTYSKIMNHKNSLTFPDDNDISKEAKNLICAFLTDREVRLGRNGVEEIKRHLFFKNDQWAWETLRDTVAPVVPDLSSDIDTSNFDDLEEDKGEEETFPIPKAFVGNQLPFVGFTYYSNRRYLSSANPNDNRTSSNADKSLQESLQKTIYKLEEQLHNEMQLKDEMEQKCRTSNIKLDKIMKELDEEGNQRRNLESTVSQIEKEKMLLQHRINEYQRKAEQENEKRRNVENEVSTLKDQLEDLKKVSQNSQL
Description: In vitro Rho kinase assay (luciferase-based ATP consumption), ROCK1. In kind it is biochemical. As to the method: (§1) Rho kinase biochemical assays described below depend on firefly luciferase-based, indirect measurement of total ATP consumption by the kinase following incubation with substrate and ATP. 25 μl of Rho kinase assay buffer (20 mM Tris-HCL [pH 7.5], 1 mM MgCl2, 0.4 mM CaCl2, 0.15 mM EGTA, 0.1 mg/ml bovine serum albumin) containing 0.82 μg/ml of recombinant N-terminal GST-tagged human Rho kinase 1 (ROCK1, amino acids 1-535, Invitrogen Inc., cat. #PV-3691) or recombinant N-terminal GST-tagged human Rho kinase 2 (ROCK2, amino acids 1-552, Invitrogen Inc., cat #PV3759), 100 μg/ml S6 peptide substrate (related to amino acids 218-249 of the human 40S ribosomal protein S6, and suitable for ROCK1 or ROCK2, e.g. Upstate/Millipore Inc., cat #12-420), and 3 µM ATP are dispensed to wells of a 384 multi-well opaque plate. The plate is centrifuged for 30 seconds at approximately 200×g. 240 nl of test compound in DMSO is dispensed to each well by passive pin transfer. The lag phase of this in vitro kinase reaction permits addition of compounds soon after the reaction initiates. The reaction is allowed to incubate at 30° C. for 2 hours. The assay plates are sealed and maintained in a humidified environment. After 2 hours, 25 μl of easyLite protein kinase assay reagent (Perkin-Elmer, Inc.) is dispensed. After an additional 10 minute incubation at room temperature (about 22° C.), luminescence activity is measured on a Molecular Devices Analyst multi-mode plate reader or other suitable plate reader. Kinase inhibition results in less ATP consumption, and therefore increased luminescence signal. Negative control activity is measured with DMSO lacking any test compound. The positive control is 2-methyl-1-(4-methylisoquinolin-5-ylsulfonyl)perhydro-1,4-diazepine hydrochloride (aka H-1152P, HCl salt). Efficacy is measured as a percentage of positive control activity. […] In some cases, kinase reactions and compound testing are performed in 1536 multi-well plates under similar conditions, with assay volumes appropriately scaled. The designated NT means the cited example was not tested.

The target of experiment [2] is T2, recombinant N-terminal GST-tagged human Rho kinase 2 (ROCK2, amino acids 1-552) (Homo sapiens, UniProt O75116).
T2 construct: ROCK2, amino acids 1-552, Invitrogen Inc., cat #PV3759; GST (N); purchased Invitrogen Inc. PV3759
T2 sequence (O75116 1-552): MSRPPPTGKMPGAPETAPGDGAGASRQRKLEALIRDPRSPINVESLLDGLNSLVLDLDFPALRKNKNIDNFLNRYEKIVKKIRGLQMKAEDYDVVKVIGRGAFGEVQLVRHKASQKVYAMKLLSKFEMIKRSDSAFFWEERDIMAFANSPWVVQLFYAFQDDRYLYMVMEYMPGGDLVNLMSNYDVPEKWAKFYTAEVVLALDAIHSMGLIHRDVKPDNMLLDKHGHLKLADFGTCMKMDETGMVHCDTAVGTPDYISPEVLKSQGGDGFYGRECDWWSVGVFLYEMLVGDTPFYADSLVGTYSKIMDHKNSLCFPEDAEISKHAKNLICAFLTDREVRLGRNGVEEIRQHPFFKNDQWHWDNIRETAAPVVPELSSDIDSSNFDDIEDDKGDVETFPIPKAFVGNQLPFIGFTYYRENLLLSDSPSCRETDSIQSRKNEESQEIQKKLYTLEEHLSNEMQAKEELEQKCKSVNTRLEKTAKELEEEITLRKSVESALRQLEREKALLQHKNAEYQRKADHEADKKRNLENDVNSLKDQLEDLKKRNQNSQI
In words: In vitro Rho kinase assay (luciferase-based ATP consumption), ROCK2. In kind it is biochemical. As for the experimental part:
as §1

For the compound `O=C(NCc1c[nH]c(-c2ccncc2)n1)c1cccs1` [Example 14], the IC50 in experiment [1] and in experiment [2] was more than 5 µM throughout. Turning to `CC(NC(=O)c1cccs1)c1nc(-c2ccncc2)n[nH]1` (stereo not drawn) [Example 65, N-(1-(3-(Pyridin-4-yl)-1H-1,2,4-triazol-5-yl)ethyl)thiophene-2-carboxamide], the IC50 in experiment [1] and in experiment [2] was less than 5 µM each time.

Turning to `O=C(NCc1nc(-c2ccncc2)n[nH]1)c1ccc(CO)cc1` [Example 51, 4-(Hydroxymethyl)-N-((3-(pyridin-4-yl)-1H-1,2,4-triazol-5-yl)methyl)benzamide], the IC50 in experiment [1] and in experiment [2] was less than 5 µM each time. Take `COC(=O)c1ccc(C(=O)NCc2nc(-c3ccncc3)n[nH]2)cc1` [Example 30, Methyl 4-((3-(pyridin-4-yl)-1H-1,2,4-triazol-5-yl)methylcarbamoyl)benzoate]: the IC50 in experiment [1] and in experiment [2] was less than 5 µM each time. In the case of `O=C(NCc1nc(-c2c[nH]c3ncccc23)n[nH]1)c1ccc(O)cc1O` [Example 69], the IC50 in experiment [1] and in experiment [2] was less than 5 µM in each case.

For the compound `O=C(c1cccs1)N1CCCC1c1nc(-c2ccncc2)n[nH]1` (stereo not drawn) [Example 67, (2-(3-(pyridin-4-yl)-1H-1,2,4-triazol-5-yl)pyrrolidin-1-yl) (thiophen-2-yl)methanone], the IC50 in experiment [1] and in experiment [2] was more than 5 µM throughout. On to `O=C(NCc1cc(-c2ccncc2)n[nH]1)c1ccc(O)cc1O` [Example 9, 2,4-dihydroxy-N-((3-(pyridin-4-yl)-1H-pyrazol-5-yl)methyl)benzamide], for which the concentration for half-maximal inhibition (IC50) in experiment [1] and in experiment [2] was less than 5 µM each time. Regarding `CC(C)(C)OC(=O)NCCCC(NC(=O)c1ccc(O)cc1O)c1nc(-c2ccncc2)n[nH]1` (stereo not drawn) [Example 78, tert-Butyl 4-(2,4-dihydroxybenzamido)-4-(3-(pyridin-4-yl)-1H-1,2,4-triazol-5-yl)butylcarbamate], the IC50 in experiment [1] and in experiment [2] was less than 5 µM in each case. For the compound `CC(C)(C)OC(=O)NC[C@H](NC(=O)c1ccc(O)cc1O)c1nc(-c2ccncc2)n[nH]1` [Example 79, (S)-tert-Butyl 2-(2,4-dihydroxybenzamido)-2-(3-(pyridin-4-yl)-1H-1,2,4-triazol-5-yl)ethylcarbamate], the IC50 in experiment [1] and in experiment [2] was less than 5 µM each time. For the compound `Cc1cccc(C(=O)NCc2nc(-c3c[nH]c4ncccc34)n[nH]2)c1O` [Example 71, N-((3-(1H-pyrrolo[2,3-b]pyridin-3-yl)-1H-1,2,4-triazol-5-yl)methyl)-2-hydroxy-3-methylbenzamide], the figures for the IC50 in experiment [1] and in experiment [2] were less than 5 µM and more than 5 µM, respectively. For `Cc1cc(C(=O)NCc2nc(-c3ccncc3)n[nH]2)ccc1O` [Example 45, 4-Hydroxy-3-methyl-N-((3-(pyridin-4-yl)-1H-1,2,4-triazol-5-yl)methyl)benzamide], in that order: less than 5 µM and less than 5 µM. Regarding `Cc1ccc(C(=O)NCc2nc(-c3ccncc3)n[nH]2)s1` [Example 49, 5-Methyl-N-((3-(pyridin-4-yl)-1H-1,2,4-triazol-5-yl)methyl)thiophene-2-carboxamide], the IC50 in experiment [1] and in experiment [2] was less than 5 µM throughout. With `CS(=O)(=O)Nc1cccc(C(=O)NCc2nc(-c3c[nH]c4ncccc34)n[nH]2)c1` [Example 72, N-((3-(1H-pyrrolo[2,3-b]pyridin-3-yl)-1H-1,2,4-triazol-5-yl)methyl)-3-(methylsulfonamido)benzamide], the half-maximal inhibitory concentration (IC50) in experiment [1] and in experiment [2] was less than 5 µM each time. On to `O=C(NCc1nc(-c2ccncc2)n[nH]1)c1nccs1` [Example 20, N-((3-(pyridin-4-yl)-1H-1,2,4-triazol-5-yl)methyl) thiazole-2-carboxamide], for which the IC50 in experiment [1] and in experiment [2] was less than 5 µM throughout.

In the case of `O=C(NCc1nc(-c2ccncc2)n[nH]1)c1ccc(O)cc1` [Example 28, 4-hydroxy-N-((3-(pyridin-4-yl)-1H-1,2,4-triazol-5-yl)methyl)benzamide], the IC50 in experiment [1] and in experiment [2] was less than 5 µM in each case. Turning to `Clc1ccc(SCc2nc(-c3ccncc3)n[nH]2)cc1` [Example 80], the IC50 in experiment [1] and in experiment [2] was less than 5 µM in each case.

As for `CC(C)(C)C(=O)Oc1ccc(C(=O)NCc2nc(-c3ccncc3)n[nH]2)c(O)c1` [Example 39, 3-Hydroxy-4-((3-(pyridin-4-yl)-1H-1,2,4-triazol-5-yl)methylcarbamoyl)phenyl pivalate], the figures for the IC50 in experiment [1] and in experiment [2] were less than 5 µM and more than 5 µM, respectively. For `O=C(NCc1ncc(-c2ccncc2)s1)c1cccs1` [Example 1, N-((5-(pyridin-4-yl)thiazol-2-yl)methyl)thiophene-2-carboxamide], in that order: more than 5 µM and more than 5 µM. For `c1ccc2c(NCc3nc(-c4ccncc4)n[nH]3)ncnc2c1` [Example 53, N-((3-(Pyridin-4-yl)-1H-1,2,4-triazol-5-yl)methyl)quinazolin-4-amine], in that order: more than 5 µM and more than 5 µM. `O=C(NCc1nc(-c2ccncc2)n[nH]1)c1cccc(Cl)c1O` [Example 26, 3-chloro-2-hydroxy-N-((3-(pyridin-4-yl)-1H-1,2,4-triazol-5-yl)methyl)benzamide]: the IC50 in experiment [1] and in experiment [2] was less than 5 µM throughout. As for `CC(C)c1cccc(C(=O)NCc2nc(-c3ccncc3)n[nH]2)c1O` [Example 41, 2-Hydroxy-3-isopropyl-N-((3-(pyridin-4-yl)-1H-1,2,4-triazol-5-yl)methyl)benzamide], the IC50 in experiment [1] and in experiment [2] was less than 5 µM in each case. Regarding `O=C(CCc1nc(-c2ccncc2)n[nH]1)c1ccc(O)cc1` [Example 63, 1-(4-hydroxyphenyl)-3-(3-(pyridin-4-yl)-1H-1,2,4-triazol-5-yl)propan-1-one], the half-maximal inhibitory concentration (IC50) in experiment [1] and in experiment [2] was less than 5 µM in each case. In the case of `O=C(Nc1cccc2c(-c3ccncc3)n[nH]c12)c1cccs1` [Example 68, N-(3-(Pyridin-4-yl)-1H-indazol-7-yl)thiophene-2-carboxamide], the half-maximal inhibitory concentration (IC50) in experiment [2] is more than 5 µM. In the case of `O=C(NCc1nc(-c2ccncc2)n[nH]1)c1cccc2c1OCC2` [Example 43, N-((3-(pyridin-4-yl)-1H-1,2,4-triazol-5-yl)methyl)-2,3-dihydrobenzofuran-7-carboxamide], the values for the IC50 in experiment [1] and in experiment [2] were less than 5 µM and more than 5 µM, respectively. `O=C(c1cccs1)N1CCn2nc(-c3ccncc3)nc2C1` [Example 62, (2-(Pyridin-4-yl)-5,6-dihydro-[1,2,4]triazolo[1,5-a]pyrazin-7(8H)-yl)(thiophen-2-yl)methanone]: the IC50 in experiment [1] and in experiment [2] was more than 5 µM throughout. `CC(NC(=O)c1ccc(O)cc1O)c1nc(-c2ccncc2)n[nH]1` (stereo not drawn) [Example 66, 2,4-Dihydroxy-N-(1-(3-(pyridin-4-yl)-1H-1,2,4-triazol-5-yl)ethyl)benzamide]: the IC50 in experiment [1] and in experiment [2] was less than 5 µM in each case. Turning to `O=C(NCc1nc(-c2ccncc2)n[nH]1)c1cccc2cc[nH]c12` [Example 42, N-((3-(Pyridin-4-yl)-1H-1,2,4-triazol-5-yl)methyl)-1H-indole-7-carboxamide], the IC50 in experiment [1] and in experiment [2] was less than 5 µM throughout.

Turning to `O=C(NCc1nc(-c2ccncc2)n[nH]1)c1cccs1` [Example 16, N-((3-(pyridin-4-yl)-1H-1,2,4-triazol-5-yl)methyl)thiophene-2-carboxamide], the 50% inhibitory concentration (IC50) in experiment [1] and in experiment [2] was less than 5 µM each time.

As to `COc1ccc(C(=O)NCc2nc(-c3ccncc3)n[nH]2)c(O)c1` [Example 24, 2-hydroxy-4-methoxy-N-((3-(pyridin-4-yl)-1H-1,2,4-triazol-5-yl)methyl)benzamide], the IC50 in experiment [1] and in experiment [2] was less than 5 µM each time. Take `NC1CCN(C(=O)Cc2nc(-c3ccncc3)n[nH]2)C1` (stereo not drawn) [Example 61, 1-(3-Aminopyrrolidin-1-yl)-2-(3-(pyridin-4-yl)-1H-1,2,4-triazol-5-yl)ethanone]: the IC50 in experiment [2] was more than 5 µM. Same read-out and setting: as for `COc1ccc(NC(=O)NCc2nc(-c3ccncc3)n[nH]2)c(OC)c1` [Example 34, 1-(2,4-Dimethoxyphenyl)-3-((3-(pyridin-4-yl)-1H-1,2,4-triazol-5-yl)methyl)urea], the figure is more than 5 µM. For `CC(C)(C)OC(=O)NC1CCN(C(=O)Cc2nc(-c3ccncc3)n[nH]2)C1` (stereo not drawn) [Example 60, tert-Butyl 1-(2-(3-(pyridin-4-yl)-1H-1,2,4-triazol-5-yl)acetyl)pyrrolidin-3-ylcarbamate], the IC50 in experiment [2] is more than 5 µM.
